According to patent US7507727B2, “Substituted quinobenzoxazine analogs and methods of using thereof” (Cylene Pharmaceuticals, Inc., priority 2003, dated 2009):

What follows are compounds tested against c-Myc template DNA (c-myc quadruplex) (assay: Quadruplex binding / stop assay (Taq polymerase arrest, capillary electrophoresis)). Conditions: read-out: S DATA; Table 1D, stop assay data.

Row | IC50 | SMILES
1 | > 15 µM | CN1CCCC1CCNC(=O)c1cn2c3c(c(NCC4OCCO4)c(F)cc3c1=O)Oc1cc3ccccc3cc1-2 (stereo not shown) [compound 1745]
2 | > 15 µM | N=C(N)NCCCCNC(=O)c1cn2c3c(c(NCCN4CCCC4)c(F)cc3c1=O)Oc1ccccc1-2 [compound 1633]
3 | > 15 µM | CC(C)OCCNc1c(F)cc2c(=O)c(C(=O)NCCC3CCCN3C)cn3c2c1Oc1cc2ccccc2cc1-3 (stereo not shown) [compound 1746]
4 | 1.75 µM | CCCCN1CCC(CNC(=O)c2cn3c4c(c(N5CCC(N)C5)c(F)cc4c2=O)Oc2cc4ccccc4cc2-3)CC1 (stereo not shown) [compound 1718]
5 | 0.74 µM | CN1CCC[C@@H]1CCNC(=O)c1cn2c3c(c(N4CCC(c5cnccn5)C4)c(F)cc3c1=O)Oc1cc3ccccc3cc1-2 (stereo partly shown) [compound 1741]
6 | 9.4 µM | CCN(CC)CCCC(C)NC(=O)c1cn2c3c(c(NCCc4ccc(OC)c(OC)c4)c(F)cc3c1=O)Oc1cc3ccccc3cc1-2 (stereo not shown) [compound 1758]
7 | > 15 µM | CN1CCCC1CCNC(=O)c1cn2c3c(c(NCCCN)c(F)cc3c1=O)Oc1cc(Cl)ccc1-2 (stereo not shown) [compound 1809]
8 | 1.75 µM | CN1CCCC1CCNC(=O)c1cn2c3c(c(N4CCC(C#N)(c5ccccc5)CC4)c(F)cc3c1=O)Oc1cc3ccccc3cc1-2 (stereo not shown) [compound 1491]
9 | > 15 µM | O=C(c1cn2c3c(c(NCCN4CCOCC4)c(F)cc3c1=O)Oc1ccccc1-2)N1CCC(N2CCCC2)CC1 [compound 1613]
10 | > 15 µM | O=C(NCCN1CCCC1)c1cn2c3c(c(N4CC5CCCNC5C4)ccc3c1=O)Oc1ccccc1-2 (stereo not shown) [compound 1731]
11 | 1.75 µM | CN1CCCC1CCNC(=O)c1cn2c3c(c(NCC(O)CO)c(F)cc3c1=O)Oc1cc3ccccc3cc1-2 (stereo not shown) [compound 1677]
12 | 1 µM | CN(C)CCCCNC(=O)c1cn2c3c(c(N4CCC(NC(=O)OC(C)(C)C)C4)ccc3c1=O)Oc1cc3ccccc3cc1-2 (stereo not shown) [compound 1538]
13 | > 15 µM | O=C(NCCN1CCOCC1)c1cn2c3c(c(NCCN4CCOCC4)ccc3c1=O)Oc1cc3ccccc3cc1-2 [compound 1551]
14 | > 15 µM | O=C(NCCN1CCCC1)c1cn2c3c(c(SCCc4cnccn4)c(F)cc3c1=O)Oc1ccccc1-2 [compound 1785]
15 | 9.8 µM | O=C(NCCN1CCCC1)c1cn2c3c(c(N4CCN(Cc5ccsc5)CC4)c(F)cc3c1=O)Oc1cc(Cl)ccc1-2 [compound 1831]
16 | > 15 µM | COc1ccccc1CCNC(=O)c1cn2c3c(c(N4CCC(N)C4)c(F)cc3c1=O)Oc1cc3ccccc3cc1-2 (stereo not shown) [compound 1711]
17 | > 15 µM | CC(C)N1CCN(c2c(F)cc3c(=O)c(C(=O)NCCCCN(C)C)cn4c3c2Oc2ccccc2-4)CC1 [compound 1567]
18 | 9.7 µM | CC(CNc1c(F)cc2c(=O)c(C(=O)NCCC3CCCN3C)cn3c2c1Oc1cc2ccccc2cc1-3)Oc1ccccn1 (stereo not shown) [compound 1750]
19 | 0.75 µM | CN1CCCC1CCNC(=O)c1cn2c3c(c(NC4CCCNC4)c(F)cc3c1=O)Oc1cc3ccccc3cc1-2 (stereo not shown) [compound 1490]
20 | 0.75 µM | CN1CCN(CCCNC(=O)c2cn3c4c(c(N5CCC(N)C5)c(F)cc4c2=O)Oc2ccccc2-3)CC1 (stereo not shown) [compound 1621]
21 | > 15 µM | CC1(C)CC(NC(=O)c2cn3c4c(c(N5CCC(N)C5)c(F)cc4c2=O)Oc2ccccc2-3)CC(C)(C)N1 (stereo not shown) [compound 1626]
22 | > 15 µM | CN1CCN(CCCNc2c(F)cc3c(=O)c(C(=O)N4CCC(N)C4)cn4c3c2Oc2ccccc2-4)CC1 (stereo not shown) [compound 1628]
23 | 3.2 µM | O=C(NCCN1CCCC1)c1cn2c3c(c(SCCc4cnccn4)c(F)cc3c1=O)Oc1cc3ccccc3cc1-2 [compound 1767]
24 | > 15 µM | NC1CCN(c2c(F)cc3c(=O)c(C(=O)NCCc4ccc(O)c(O)c4)cn4c3c2Oc2cc3ccccc3cc2-4)C1 (stereo not shown) [compound 1706]
25 | 1.75 µM | CN1CCN(CCCNc2ccc3c(=O)c(C(=O)NCCCN4CCOCC4)cn4c3c2Oc2cc3ccccc3cc2-4)CC1 [compound 1554]
26 | > 15 µM | CN1CCCC1CCNC(=O)c1cn2c3c(c(N4CCC(N)C4)c(F)cc3c1=O)Oc1ccccc1-2 (stereo not shown) [compound 1623]
27 | 1 µM | CN(C)CC(C)(C)CNC(=O)c1cn2c3c(c(NCCCN4CCOCC4)c(F)cc3c1=O)Oc1cc3ccccc3cc1-2 [compound 1652]

Same assay, conditions: read-out: Stop Data c-Myc μM; concentration at which 50% of the DNA was arrested (arrested:full-length 1:1)

Row | IC50 | SMILES
28 | 0.75 µM | O=C(O)c1cn2c3c(c(N4CC5CCCNC5C4)c(F)cc3c1=O)Oc1cc3ccccc3cc1-2 (stereo not shown) [compound 23]
29 | 1.75 µM | CC1CCN(CCCNC(=O)c2cn3c4c(c(N5CCC(NC(=O)OC(C)(C)C)C5)c(F)cc4c2=O)Oc2cc4ccccc4cc2-3)CC1 (stereo not shown) [compound 243]
30 | 0.75 µM | CN1CCN(CCCNC(=O)c2cn3c4cc5c(cc4oc4c(NCCC6CCCN6C)c(F)cc(c2=O)c43)c(=O)c2ccccc25)CC1 (stereo not shown) [compound 426]
31 | 0.75 µM | CNC1CCN(c2c(F)cc3c(=O)c(C(=O)NCCC4CCCN4C)cn4c3c2Oc2cc3ccccc3cc2-4)C1 (stereo not shown) [compound 430]
32 | 1.75 µM | CN1CCN(CCCNC(=O)c2cn3c4c(c(NCCN5CCOCC5)c(F)cc4c2=O)Oc2cc4c(cc2-3)oc2ccccc24)CC1 [compound 146]
33 | 1.75 µM | CC1CCCCN1CCCNc1c(F)cc2c(=O)c(C(=O)NCCC3CCCN3C)cn3c2c1Oc1cc2ccccc2cc1-3 (stereo not shown) [compound 259]
34 | 0.9 µM | CN1CCN(CCCNC(=O)c2cn3c4c(c(NCCCN5CCN(C)CC5)c(F)cc4c2=O)Oc2cc4ccccc4cc2-3)CC1 [compound 342]
35 | 1.75 µM | CC1CCCN(CCCNC(=O)c2cn3c4c(c(N5CCC(N)C5)c(F)cc4c2=O)Oc2cc4ccccc4cc2-3)C1 (stereo not shown) [compound 301]
36 | 0.75 µM | N[C@@H]1CCN(c2c(F)cc3c(=O)c(C(=O)NCCN4CCCC4)cn4c3c2Oc2c-4ccc3ccccc23)C1 [compound 401]
37 | 0.75 µM | CN1CCCC1CCNC(=O)c1cn2c3c(c(N4CC[C@@H](NC(=O)CCN5CCOCC5)C4)c(F)cc3c1=O)Oc1cc3c(cc1-2)oc1ccccc13 (stereo partly shown) [compound 402]
38 | 1.75 µM | CN(C)CCCCNC(=O)c1cn2c3c(c(N4CC[C@@H](N)C4)c(F)cc3c1=O)Oc1c-2ccc2ccccc12 [compound 156]
39 | 0.75 µM | CN1CCN(CCCNC(=O)c2cn3c4c(c(N5CCC(N)C5)c(F)cc4c2=O)Oc2ccccc2-3)CC1 (stereo not shown) [compound 459]
40 | 0.375 µM | CN(C)CCCCNC(=O)c1cn2c3cc4oc5cc([N+](=O)[O-])ccc5[nH]c4cc3oc3c(NCCCN4CCOCC4)c(F)cc(c1=O)c32 [compound 555]
41 | 1.75 µM | COc1ccc2[nH]cc(CCNc3c(F)cc4c(=O)c(C(=O)NCCC5CCCN5C)cn5c4c3Oc3cc4ccccc4cc3-5)c2c1 (stereo not shown) [compound 290]
42 | 1.75 µM | CN1CCN(CCCNc2c(F)cc3c(=O)c(C(=O)NCCCN4CCOCC4)cn4c3c2Oc2cc3ccccc3cc2-4)CC1 [compound 119]
43 | 1 µM | CC(C)NCCCNc1c(F)cc2c(=O)c(C(=O)N3CCOCC3)cn3c2c1Oc1cc2ccccc2cc1-3 [compound 316]
44 | 1.75 µM | CN1CCCC1CCNc1c(F)cc2c(=O)c(-c3nc4ccccc4s3)cn3c2c1Oc1cc2ccccc2cc1-3 (stereo not shown) [compound 114]
45 | 1.75 µM | CC(C)(C)OC(=O)NC1CCN(c2c(F)c(N)c3c(=O)c(C(=O)NCCN4CCOCC4)cn4c3c2Oc2cc3ccccc3cc2-4)C1 (stereo not shown) [compound 229]
46 | 0.75 µM | CN1CCCC1CCNC(=O)c1cn2c3cc4c(cc3oc3c(N5CC[C@H](NC(=O)OC(C)(C)C)C5)c(F)cc(c1=O)c32)c(=O)c1ccccc14 (stereo partly shown) [compound 421]

Row | IC50 | SMILES
47 | 1 µM | CN1CCCC1CCNC(=O)c1cn2c3c(c(NC4CCS(=O)(=O)C4)c(F)cc3c1=O)Oc1cc3ccccc3cc1-2 (stereo not shown) [compound 338]
48 | 2.5 µM | O=C(NCCN1CCOCC1)c1cn2c3c(c(NCCN4CCOCC4)c(F)cc3c1=O)Oc1cc3ccccc3cc1-2 [compound 54]
49 | 0.375 µM | O=C(NCCN1CCCC1)c1cn2c3cc4oc5cc([N+](=O)[O-])ccc5[nH]c4cc3oc3c(NCCCN4CCOCC4)c(F)cc(c1=O)c32 [compound 554]
50 | 0.75 µM | CN(C)CCCCNC(=O)c1cn2c3c(c(N4CCC(NC(=O)OC(C)(C)C)C4)ccc3c1=O)Oc1cc3ccccc3cc1-2 (stereo not shown) [compound 452]
51 | 1.75 µM | CN(C)CCCCNC(=O)c1cn2c3c(c(NCCCN4CCOCC4)c(F)c(N)c3c1=O)Oc1cc3ccccc3cc1-2 [compound 220]
52 | 1.75 µM | CN1CCCC1CCNC(=O)c1cn2c3c(c(NCCN4CCCC4)c(F)cc3c1=O)Oc1c-2ccc2ccccc12 (stereo not shown) [compound 138]
53 | 1 µM | CN(C)CC(C)(C)CNC(=O)c1cn2c3c(c(NCCCN4CCOCC4)c(F)cc3c1=O)Oc1cc3ccccc3cc1-2 [compound 332]
54 | 2.5 µM | O=C(NCCN1CCCC1)c1cn2c3c(c(NCCN4CCCC4)c(F)cc3c1=O)Oc1cc3ccccc3cc1-2 [compound 74]
55 | 1.75 µM | CC1CCCCN1CCCNC(=O)c1cn2c3c(c(N4CCC(NC(=O)OC(C)(C)C)C4)c(F)cc3c1=O)Oc1cc3ccccc3cc1-2 (stereo not shown) [compound 185]
56 | 1.75 µM | CN(C)CCCCNC(=O)c1cn2c3c(c(N)c(F)c(N4CC[C@H](N)C4)c3c1=O)Oc1cc3ccccc3cc1-2 [compound 190]
57 | 0.75 µM | CN1CCCC1CCNC(=O)c1cn2c3c(c(N4CC[C@@H](NC(=O)CCNCCCN5CCOCC5)C4)c(F)cc3c1=O)Oc1cc3c(cc1-2)oc1ccccc13 (stereo partly shown) [compound 416]
58 | 2.5 µM | CN1CCN(CCCNc2c(F)cc3c(=O)c(C(=O)NCCN4CCOCC4)cn4c3c2Oc2cc3ccccc3cc2-4)CC1 [compound 60]
59 | 1.75 µM | CN(C)CCCCNC(=O)c1cn2c3c(c(N4CCC(NC(=O)OC(C)(C)C)C4)c(F)c(N)c3c1=O)Oc1cc3ccccc3cc1-2 (stereo not shown) [compound 228]
60 | 1.75 µM | CN1CCCC1CCNC(=O)c1cn2c3c(c(N4CCC(N5CCCCC5)CC4)c(F)cc3c1=O)Oc1cc3ccccc3cc1-2 (stereo not shown) [compound 254]
61 | 0.75 µM | CC(=O)N[C@@H]1CCN(c2c(F)cc3c(=O)c(C(=O)NCCC4CCCN4C)cn4c3c2Oc2cc3c(cc2-4)oc2ccccc23)C1 (stereo partly shown) [compound 406]
62 | 2.5 µM | CN(C)CCCCNC(=O)c1cn2c3c(c(NCCCN4CCOCC4)c(F)cc3c1=O)Oc1cc3ccccc3cc1-2 [compound 52]
63 | 0.75 µM | O=C(NCCN1CCCC1)c1cn2c3cc4c(cc3oc3c(NCCN5CCOCC5)c(F)cc(c1=O)c32)c(=O)c1ccccc14 [compound 419]
64 | 0.75 µM | CN1CCN(CCCNCCC(=O)N[C@@H]2CCN(c3c(F)cc4c(=O)c(C(=O)NCCN5CCCC5)cn5c4c3Oc3cc4c(cc3-5)oc3ccccc34)C2)CC1 [compound 403]
